Literature values in patent publication US20050271673A1, “Trifunctional reagent for conjugation to a biomolecule” (priority 1998, published 2005).

Tests used:
streptavidin = streptavidin (Streptomyces avidinii, UniProt P22629); settings: association constant; Green 1990, 1975
avidin = avidin (Gallus gallus, UniProt P02701); settings: association constant; Green 1990, 1975
avidin, sequence (P02701 25-152, species assumed): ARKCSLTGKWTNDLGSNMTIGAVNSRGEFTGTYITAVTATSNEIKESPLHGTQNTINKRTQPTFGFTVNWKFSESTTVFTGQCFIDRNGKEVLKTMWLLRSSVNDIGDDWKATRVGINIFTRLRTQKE

streptavidin, sequence (P22629 25-183, species assumed): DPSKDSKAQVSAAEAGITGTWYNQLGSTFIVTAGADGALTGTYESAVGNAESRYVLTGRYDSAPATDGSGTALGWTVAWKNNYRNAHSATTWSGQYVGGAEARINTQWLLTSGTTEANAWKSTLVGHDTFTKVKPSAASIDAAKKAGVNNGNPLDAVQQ

## O=C(O)CCCC[C@@H]1SC[C@@H]2NC(=O)N[C@@H]21 [biotin]
streptavidin
  K (binding constant of biotin with streptavidin): 1013 to 1015 M⁻¹
avidin
  K (binding constant of biotin with avidin): 1013 to 1015 M⁻¹
